The values that follow come from patent publication US11401516B2, “Channel modulators” (AUCKLAND UNISERVICES LIMITED, priority 2014, dated 2022).

In one data set the target is T1, Connexin43 hemichannel (Homo sapiens, UniProt P17302).
T1 construct: expressed in transfected cells; host or cells: HeLa (connexin-deficient parent), Cx43IRESeGFP, puromycin selection
Briefly: Whole-cell voltage clamp, Connexin43 transfected HeLa cells. The data set is classed as cell-based. The settings on record: voltage steps; peptide5 100 μM; carbenoxolone and LaCl3 concentration not stated. On the procedure: Whole-cell voltage clamp studies were conducted on connexin deficient HeLa cells, Connexin43 transfected HeLa cells and isolated human cerebral microvascular endothelial cells (hCMVEC).
HeLa cells were seeded at 0.045×10^6 cells/mL on 18 mm rat collagen I coated coverslips 16-24 hours before each experiment. Cx43IRESeGFP HeLa cells were cultured overnight in DMEM supplemented with 10% FCS and 1 μg/mL Puromycin at 37° C. at 95% O2 and 5% CO2. Control Cx-deficient cells were maintained in DMEM supplmented with 10% FCS. Coverslips were transferred to a chamber continuously perfused with modified Krebs-Ringer solution containing (in mM): 140 NaCl, 5.4 KCl, 1 MgCl2, 10 mM Hepes and pH adjusted to 7.4 at room temperature. The internal pipette solution contained (in mM): 130 KCl, 10 sodium aspartate, 0.26 CaCl2, 2 EGTA, 5 tetraethylammonium-Cl, 1 MgCl, 3 MgATP, and 5 Hepes at pH 7.2; and was kept on ice. The solutions are described in Contreras J E, et al., Cell Communication and Adhesion (2003), 10:245-249. To resolve single currents in whole-cell configuration, cells with low capacitance (<10 pF) and high resistance pipettes ([…]) with a seal resistance of (>5 GOhm) were selected for recording and analysis.

In a further data set the test system is HUVEC cells. Briefly: Transfection uptake of FAM-labelled oligonucleotides (FACS). The data set is classed as cell-based, Human. To be noted: 200 nM. On the procedure: HUVEC cells (C-003-5C, Invitrogen, primary Human endothelial cells) were used to test the transfection of chemically modified backbones of the Connexin 43 antisense compounds. Cells were transfected with Oligofectamine® using the manufacturer's recommended protocol for 4 hr and 12 hr in serum-free media. The antisense concentration was 200 nM in buffer. The antisense compounds used had unmodified (O) or fully modified (PTO) backbones, where the modified backbone had all thiophosphoriate linkages between the nucleotides. The unmodified sequence SEQ1-O would have the sequence […] NO: 23). The modified sequence SEQ1-PTO would have the sequence of: [NT] NO: 23), wherein the subscript “s” indicates the thiophosphoriate linkage between the two nucleotides. […] All sequences for the transfection study were labelled with FAM for fluorescence labelling. The transfected cells were analyzed by FACS (fluorescent-activated cell sorting), and confocal microscopy.

In another data set the test system is Connexin 43 RNA. The data set is described as follows: Connexin 43 knockdown by qPCR in HUVEC. It counts as cell-based, human. The settings on record: for Avg % KD qPCR: HUVEC, phosphorothioate backbone ASN; for Absolute Difference from SEQ1 (relative knockdown): all-thiophosphoriate linkages in the entire backbone; for dose response of Cxn43 knockdown, qPCR: 200-600 nM. On the procedure:
Next, the knockdown efficiency of Connexin 43 in HUVEC cells was measured by qPCR for an oligonucleotide series with the same sequence but with a different number of PTO-modifications on the oligonucleotide backbone. The sequences tested were SEQ1 and SEQ4, with none, 2, or all phosphorthioate linkages in the backbone. For the sequences with two phosphorthioate linkages in the backbone, the phosphorthioate linkages were between the last nucleotide linkages at the terminus of each side of the sequence. The sequences are Gs[…]sT (SEQ ID NO: 23) and As[…]sC (SEQ ID NO: 5) for SEQ1-2PTO and SEQ4-2PTO, respectively. […]
(§1) Cells were grown in 6-well culture plates for 24 hr and reached 50-70% confluence prior to antisense oligonucleotide treatments using the transfection agent Oligofectamine®. Cells were harvested for qPCR and Western blotting analysis between 4 and 24 hr after transfection.
qPCR was performed to determine the efficacy of antisense oligonucleotide in knockdown of the target RNA. Briefly, total RNA was extracted from the cells after transfection. The isolated RNA was DNAse-treated and reverse-transcribed into cDNA. The cDNA subsequently underwent qPCR thermal cycling. The Ct values (the number of cycles required for the fluorescent intensity to cross the set threshold) obtained from the qPCR were converted into relative abundance of RNA. The RNA level of the target was normalised to selected reference genes and compared between antisense oligonucleotide versus vehicle treatments.
(§2) The cell screening experiments were performed using HUVEC cells (human umbilical vein endothelial cells; Invitrogen), with two biological replicates in each experiment. The identifiers of “CODA” are SEQ1, and “LP2” are SEQ4.
For orientation: In qPCR the cycle at which signal appears reflects the starting amount.

The next data set relates to Connexin 43. Briefly: Connexin 43 knockdown by Western blot in HUVEC. The data set is classed as cell-based, human. To be noted: phosphorothioate backbone ASN. As to the method: as §1
Western blotting was also performed to determine the efficacy of antisense oligonucleotide in knockdown of the target protein. Briefly, total proteins were extracted from the cells after transfection and the concentration was determined by performing bicinchoninic acid (BCA) assay. Subsequently, equal amounts of total protein were loaded for gel electrophoresis and blotted onto nitrocellulose membranes, which were then probed with a specific antibody against the target protein. Densitometry was used to quantify the band intensity of the target protein. Knockdown was quantified by comparing antisense oligonucleotide versus vehicle treatments.
as §2
(In western blotting, separated proteins are transferred to a membrane and probed.)

For data set [1] the following is noted: cited from earlier work; for incidence of new geographic atrophy: treated monthly, average 23 injections over two years.
The mark [2] stands for this setting: Table 66, 4 hr post-transfection.
Where [3] appears, read: Table 67, 4 hr post-transfection.
Setting [4] is: unmodified sequences (no phosphorthioate linkages).

T1 sequence (P17302 2-382 limits assumed): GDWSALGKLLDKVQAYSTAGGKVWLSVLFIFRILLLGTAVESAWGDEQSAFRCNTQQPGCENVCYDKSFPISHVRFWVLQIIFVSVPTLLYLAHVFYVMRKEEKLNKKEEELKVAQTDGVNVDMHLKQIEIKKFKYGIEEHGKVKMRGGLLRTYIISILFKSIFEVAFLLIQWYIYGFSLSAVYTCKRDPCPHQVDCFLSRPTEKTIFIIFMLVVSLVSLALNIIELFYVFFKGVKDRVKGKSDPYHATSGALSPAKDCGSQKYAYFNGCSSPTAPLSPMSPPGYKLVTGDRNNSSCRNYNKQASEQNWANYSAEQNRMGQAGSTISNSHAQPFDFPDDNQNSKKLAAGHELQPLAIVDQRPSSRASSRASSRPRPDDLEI

Regarding `[Cl][La]([Cl])[Cl]` [LaCl3], the Connexin43 hemichannel activity result at Connexin43 hemichannel is on record as “virtually complete hemichannel block”.

Turning to “ACCCATGTTGCCTGGGCACC (chemistry not fully specified) [SEQ4-Q]”, in the data set on HUVEC cells (setting [2]), the “% transfected, M2” value came to 64%; the “% transfected, M3” value stood at 34%; the “% transfected, M4” value is 1%; the “% transfected, Total” value was determined as 99%. In addition, in the data set with HUVEC cells (setting [3]), the “% transfected, M2” value was 55%; the “% transfected, M3” value was 41%; the “% transfected, M4” value is listed as 2%; the “% transfected, Total” value is listed as 99%.

With “AGGCTGTGCATGGGAGTTAG (chemistry not given here) [SEQ7/1233]”, in the data set on Connexin 43 RNA, the “Avg % KD qPCR” value is given as 82% and the “Absolute Difference from SEQ1 (relative knockdown)” value amounted to 17. Further, the “Avg % KD WB” value in the data set on Connexin 43 turned out to be 75%.

In the case of “ATATGATCTGCAGGACCCAG (chemistry not given here) [SEQ9/50506]”, in the data set with Connexin 43 RNA, the “Avg % KD qPCR” value came out at 79% and the “Absolute Difference from SEQ1 (relative knockdown)” value was 14. In the data set with Connexin 43, the “Avg % KD WB” value amounted to 73%.

As for “AsCsCsCsAsTsGsTsTsGsCsCsTsGsGsGsCsAsCsC (ACCCATGTTGCCTGGGCACC; chemistry not fully specified) [SEQ4-PTO]”, in the data set on HUVEC cells (setting [2]), the “% transfected, M2” value is listed as 9%; the “% transfected, M3” value is listed as 44%; the “% transfected, M4” value is on record as 48%; the “% transfected, Total” value is reported as 100%. In addition, in the data set on HUVEC cells (setting [3]), the “% transfected, M2” value is 9%; the “% transfected, M3” value was determined as 44%; the “% transfected, M4” value came to 47%; the “% transfected, Total” value came to 99%.

Regarding Avastin: VEGF antagonist antibody, the “incidence of new geographic atrophy” value in data set [1] was 19.5%.

“CAGAAGCGCACATGAGAGAT (chemistry not given here) [SEQ8/47001]”: in the data set on Connexin 43 RNA, the “Avg % KD qPCR” value is 81% and the “Absolute Difference from SEQ1 (relative knockdown)” value was 15. The “Avg % KD WB” value in the data set with Connexin 43 is listed as 75%.

Consider “CCAGGCTGACTCAACCGCTG (chemistry not given here) [SEQ4/37501]”, for which, in the data set on Connexin 43 RNA, the “Avg % KD qPCR” value was 87% and the “Absolute Difference from SEQ1 (relative knockdown)” value is listed as 22. For the same compound, in the data set with Connexin 43 RNA (setting [4]), the “dose response of Cxn43 knockdown, qPCR” value is given as “exhibited a dose response”. Also, in the data set with Connexin 43, the “Avg % KD WB” value is 82%.

In the case of “CGCTGGTCCACAATGGCTAG (chemistry not given here) [SEQ6/133705]”, in the data set with Connexin 43 RNA, the “Avg % KD qPCR” value came out at 83% and the “Absolute Difference from SEQ1 (relative knockdown)” value is 18. Further, the “dose response of Cxn43 knockdown, qPCR” value with Connexin 43 RNA (setting [4]) is “exhibited a dose response”. Besides, the “Avg % KD WB” value in the data set with Connexin 43 is 75%.

Turning to “GAAGCGCACATGAGAGATTG (chemistry not given here) [SEQ11]”, the “Absolute Difference from SEQ1 (relative knockdown)” value in the data set with Connexin 43 RNA is listed as 20.

On to “GCTGGCTCTGCTTGAAGGTC (chemistry not given here) [SEQ 5/133705]”, for which, in the data set on Connexin 43 RNA, the “Avg % KD qPCR” value was 84% and the “Absolute Difference from SEQ1 (relative knockdown)” value came out at 19. Besides, in the data set with Connexin 43, the “Avg % KD WB” value is reported as 75%.

For “GTAATTGCGGCAAGAAGAATTGTTTCTGT (DNA, phosphodiester; FAM fluorescent label attached, position not given here) [SEQ1-O]”, in the data set with HUVEC cells (setting [2]), the “% transfected, M2” value is given as 56%; the “% transfected, M3” value is listed as 42%; the “% transfected, M4” value is reported as 2%; the “% transfected, Total” value is 99%. In the data set with HUVEC cells (setting [3]), the “% transfected, M2” value amounted to 56%; the “% transfected, M3” value was 40%; the “% transfected, M4” value is 2%; the “% transfected, Total” value is recorded as 98%.

For the compound “GTAATTGCGGCAAGAAGAATTGTTTCTGTC (chemistry not given here) [SEQ1]”, the “knockdown effect on Cxn43, qPCR” value in the data set with Connexin 43 RNA (unmodified sequences (no phosphorthioate linkages), 4 hr, all concentrations (200-600 nM)) was at most 10%.

Take “GsTsAsAsTsTsGsCsGsGsCsAsAsGsAsAsGsAsAsTsTsGsTsTsTsCsTsGsT (GTAATTGCGGCAAGAAGAATTGTTTCTGT; chemistry not fully specified) [SEQ1-PTO]”: in the data set with HUVEC cells (setting [2]), the “% transfected, M2” value was determined as 26%; the “% transfected, M3” value was 63%; the “% transfected, M4” value came to 11%; the “% transfected, Total” value was 100%. For the same compound, in the data set on HUVEC cells (setting [3]), the “% transfected, M2” value was 15%; the “% transfected, M3” value was 49%; the “% transfected, M4” value came to 35%; the “% transfected, Total” value amounted to 100%.

With Lucentis: VEGF antagonist antibody, the new geographic atrophy in data set [1] (treated as needed) is recorded as 16%. Moreover, the “incidence of new geographic atrophy” value in data set [1] is recorded as 29.4%.

With “TCTCCCCAGGCTGACTCAAC (chemistry not given here) [SEQ10/37503]”, in the data set with Connexin 43 RNA, the “Avg % KD qPCR” value is recorded as 77% and the “Absolute Difference from SEQ1 (relative knockdown)” value came out at 12. Also, the “Avg % KD WB” value in the data set on Connexin 43 is 75%.
